Results from patent publication US11077090B2, “Compounds and compositions and uses thereof” (Sunovion Pharmaceuticals Inc., priority 2016, dated 2021).
Where two headings read alike, the source gives them in different places.

System: compound-treated mice
Test: Neuropharmacological assay (SmartCube): behavioral activity signature and minimal effective dose
Type: in vivo
Conditions: for minimal effective dose: Mus musculus, ip, MED = dose having 50% or more total activity; for AD: ADHD (probability of activity signature) / AG: analgesic (probability of activity signature) / AX: anxiolytic (probability of activity signature) / CE: cognitive enhancer (probability of activity signature) / DP: anti-depressant (probability of activity signature) / MS: mood stabilizer (probability of activity signature) / PS: anti-psychotic (probability of activity signature) / SD: sedative hypnotic (probability of activity signature) / UN: uncharacterized CNS activity (probability of activity signature): i.p. 15 min before test, most efficacious dose(s)
Procedure, shortened: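 Video-recorded behavior is compared algorithmically against a reference-compound database, yielding class probabilities (best dose reported). Compounds given i.p. in NMP/PEG/propylene glycol 15 min pre-test at 3 doses; potency as MED, the dose (mpk, range usually 0.3–30) reaching ≥50% total activity.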

[1] = read-out: Potency: minimal effective dose (MED), binned
[2] = read-out: Potency: minimal effective dose (MED)

| Structure (SMILES) | minimal effective dose [1] [mg/kg] | AD: ADHD (probability of activity signature) | AG: analgesic (probability of activity signature) | AX: anxiolytic (probability of activity signature) | CE: cognitive enhancer (probability of activity signature) | DP: anti-depressant (probability of activity signature) | MS: mood stabilizer (probability of activity signature) | PS: anti-psychotic (probability of activity signature) | SD: sedative hypnotic (probability of activity signature) | UN: uncharacterized CNS activity (probability of activity signature) | minimal effective dose [2] [mg/kg] |
| --- | --- | --- | --- | --- | --- | --- | --- | --- | --- | --- | --- |
| C[C@H]1OCc2c(F)cccc2[C@@H]1N.Cl [Example 214] | 3 to 10 | ++ (5% ≤ ++ <25%) | ++ (5% ≤ ++ <25%) | ++ (5% ≤ ++ <25%) | ++ (5% ≤ ++ <25%) | ++ (5% ≤ ++ <25%) | + (LOQ ≤ + <5%) | ++ (5% ≤ ++ <25%) | ++ (5% ≤ ++ <25%) | ++++ (50% ≤ ++++) |  |
| CCN(C)C(=O)Oc1ccc2c(c1)[C@H](N)[C@@H](C)OC2.Cl [Example 282] | > 30 | + (LOQ ≤ + <5%) | + (LOQ ≤ + <5%) | + (LOQ ≤ + <5%) | + (LOQ ≤ + <5%) | + (LOQ ≤ + <5%) | + (LOQ ≤ + <5%) | + (LOQ ≤ + <5%) | ++ (5% ≤ ++ <25%) | + (LOQ ≤ + <5%) |  |
| Cc1ccc2c(c1)[C@H](N)CO[C@@H]2C.Cl [Example 106] |  | + (LOQ ≤ + <5%) | + (LOQ ≤ + <5%) | ++ (5% ≤ ++ <25%) | ++ (5% ≤ ++ <25%) | + (LOQ ≤ + <5%) | + (LOQ ≤ + <5%) | ++ (5% ≤ ++ <25%) | ++ (5% ≤ ++ <25%) | ++++ (50% ≤ ++++) | 3 to 10 |
| Cl.NC1CCOCc2ccccc21 (centres unmarked) [Example 33, 1,3,4,5-Tetrahydrobenzo[c]oxepin-5-amine hydrochloride] |  | + (LOQ ≤ + <5%) | ++ (5% ≤ ++ <25%) | ++ (5% ≤ ++ <25%) | ++ (5% ≤ ++ <25%) | + (LOQ ≤ + <5%) | + (LOQ ≤ + <5%) | ++ (5% ≤ ++ <25%) | + (LOQ ≤ + <5%) | +++ (25% ≤ +++ <50%) | 10 to 30 |
| COc1ccc2c(c1)[C@H](N)[C@@H](C)OC2 (single isomer, unassigned) [Example 171] | < 3 | + (LOQ ≤ + <5%) | ++ (5% ≤ ++ <25%) | +++ (25% ≤ +++ <50%) | ++ (5% ≤ ++ <25%) | ++ (5% ≤ ++ <25%) | + (LOQ ≤ + <5%) | ++ (5% ≤ ++ <25%) | ++ (5% ≤ ++ <25%) | +++ (25% ≤ +++ <50%) |  |
| C[C@@H]1OCc2ccc(F)cc2[C@@H]1N.Cl [Example 88] |  | + (LOQ ≤ + <5%) | ++ (5% ≤ ++ <25%) | +++ (25% ≤ +++ <50%) | ++ (5% ≤ ++ <25%) | + (LOQ ≤ + <5%) | + (LOQ ≤ + <5%) | ++ (5% ≤ ++ <25%) | ++ (5% ≤ ++ <25%) | +++ (25% ≤ +++ <50%) | < 3 |
| CN[C@@H]1COCc2cccc(C)c21 (single isomer, unassigned) [Example 137] |  | + (LOQ ≤ + <5%) | ++ (5% ≤ ++ <25%) | ++ (5% ≤ ++ <25%) | ++ (5% ≤ ++ <25%) | + (LOQ ≤ + <5%) | + (LOQ ≤ + <5%) | ++ (5% ≤ ++ <25%) | + (LOQ ≤ + <5%) | +++ (25% ≤ +++ <50%) | 3 to 10 |
| Cc1ccc2c(c1)[C@H](N)[C@@H](C(C)C)OC2 [Example 210] | 3 to 10 | + (LOQ ≤ + <5%) | ++ (5% ≤ ++ <25%) | ++ (5% ≤ ++ <25%) | ++ (5% ≤ ++ <25%) | + (LOQ ≤ + <5%) | + (LOQ ≤ + <5%) | + (LOQ ≤ + <5%) | + (LOQ ≤ + <5%) | ++++ (50% ≤ ++++) |  |
| CC[C@H]1OCc2ccccc2[C@@H]1N.Cl (single isomer, unassigned) [Example 199] | < 3 | + (LOQ ≤ + <5%) | ++ (5% ≤ ++ <25%) | ++++ (50% ≤ ++++) | ++ (5% ≤ ++ <25%) | + (LOQ ≤ + <5%) | + (LOQ ≤ + <5%) | ++ (5% ≤ ++ <25%) | ++ (5% ≤ ++ <25%) | ++++ (50% ≤ ++++) |  |
| C[C@H]1OCc2cc(Cl)ccc2[C@@H]1N.Cl [Example 94] |  | + (LOQ ≤ + <5%) | ++ (5% ≤ ++ <25%) | ++ (5% ≤ ++ <25%) | + (LOQ ≤ + <5%) | + (LOQ ≤ + <5%) | + (LOQ ≤ + <5%) | + (LOQ ≤ + <5%) | + (LOQ ≤ + <5%) | ++ (5% ≤ ++ <25%) | 10 to 30 |
| Cc1ccc2c(c1)C(N)C(C)(C)COC2.Cl (centres unmarked) [Example 63, 4,4,7-Trimethyl-1,3,4,5-tetrahydrobenzo[c]oxepin-5-amine hydrochloride] |  | + (LOQ ≤ + <5%) | ++ (5% ≤ ++ <25%) | ++ (5% ≤ ++ <25%) | ++ (5% ≤ ++ <25%) | ++ (5% ≤ ++ <25%) | + (LOQ ≤ + <5%) | + (LOQ ≤ + <5%) | + (LOQ ≤ + <5%) | ++ (5% ≤ ++ <25%) | 10 to 30 |
